Assay results published in the supplement of paper PMC10307832.

Key:
Assay in all cases: relative viability (nuclei count vs DMSO), 5 days (fraction); higher = more cells survive
[1] = compound: C[C@]1(O)C[C@@H](c2nc(-c3ccc4ccc(-c5ccccc5)nc4c3)c3c(N)nccn32)C1 [Linsitinib] + CCNC(=O)c1noc(-c2cc(C(C)C)c(O)cc2O)c1-c1ccc(CN2CCOCC2)cc1 [Luminespib] (partner 0.01 µM)
Method in brief: (§1)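 Five library-drug doses in √10 steps were combined with a fixed anchor-drug dose, or a single drug was given alone, by pin tool to lung cancer cell lines in 1536-well plates the day after seeding. Nuclei were stained and counted after 5 days. Relative viability is the nuclei count in treated wells over that in vehicle wells, taken as the median of duplicate plates.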

[2] = compound: C[C@]1(O)C[C@@H](c2nc(-c3ccc4ccc(-c5ccccc5)nc4c3)c3c(N)nccn32)C1 [Linsitinib] + NC(=O)Nc1cc(-c2cccc(F)c2)sc1C(=O)N[C@H]1CCCNC1 [AZD7762] (partner 0.2 µM)
Method in brief: as §1

[3] = compound: Cc1ccc(C(=O)N(CCCN)[C@@H](c2nc3cc(Cl)ccc3c(=O)n2Cc2ccccc2)C(C)C)cc1 [Ispinesib] + CC(C)C[C@H](NC(=O)[C@H](Cc1ccccc1)NC(=O)c1cnccn1)B(O)O [Bortezomib] (partner 0.002 µM)
Method in brief: as §1

[4] = compound: Cc1ccc(C(=O)N(CCCN)[C@@H](c2nc3cc(Cl)ccc3c(=O)n2Cc2ccccc2)C(C)C)cc1 [Ispinesib] + CS(=O)(=O)CCNCc1ccc(-c2ccc3ncnc(Nc4ccc(OCc5cccc(F)c5)c(Cl)c4)c3c2)o1 [Lapatinib] (partner 2 µM)
Method in brief: as §1

Row | Cell Line | relative viability ([1]; first compound 0.01 µM) | relative viability ([1]; first compound 0.03162 µM) | relative viability ([1]; first compound 0.1 µM) | relative viability ([1]; first compound 0.3162 µM) | relative viability ([1]; first compound 1 µM) | relative viability ([2]; first compound 0.01 µM) | relative viability ([2]; first compound 0.03162 µM) | relative viability ([2]; first compound 0.1 µM) | relative viability ([2]; first compound 0.3162 µM) | relative viability ([2]; first compound 1 µM) | relative viability ([3]; first compound 0.001 µM) | relative viability ([3]; first compound 0.003162 µM) | relative viability ([3]; first compound 0.01 µM) | relative viability ([3]; first compound 0.03162 µM) | relative viability ([3]; first compound 0.1 µM) | relative viability ([4]; first compound 0.001 µM) | relative viability ([4]; first compound 0.003162 µM) | relative viability ([4]; first compound 0.01 µM) | relative viability ([4]; first compound 0.03162 µM) | relative viability ([4]; first compound 0.1 µM)
1 | PC-14 | 0.217 | 0.112 | 0.18 | 0.196 | 0.103 | 0.296 | 0.307 | 0.34 | 0.305 | 0.27 | 0.859 | 1.01 | 0.962 | 0.71 | 0.0916 | 0.331 | 0.397 | 0.363 | 0.421 | 0.125
2 | NCI-H1915 | 0.796 | 0.61 | 0.835 | 0.707 | 0.797 | 0.661 | 0.641 | 0.785 | 0.748 | 0.538 | 1.04 | 1.14 | 1.13 | 0.797 | 0.172 | 0.958 | 1.06 | 1 | 0.363 | 0.139
3 | 201T | 1.05 | 1.13 | 1.02 | 1.18 | 1.1 | 0.554 | 0.59 | 0.675 | 0.509 | 0.612 | 1.13 | 1.16 | 0.947 | 1.02 | 0.669 | 1.06 | 1.07 | 1.1 | 0.916 | 0.431
4 | NCI-H1437 | 1.1 | 1.12 | 1.22 | 1.1 | 1.19 | 1.15 | 1.16 | 1.11 | 0.964 | 1.1 | 0.451 | 0.608 | 0.592 | 0.487 | 0.134 | 0.98 | 0.928 | 0.901 | 0.419 | 0.206
5 | A-427 | 0.757 | 0.954 | 1.01 | – | 0.993 | 0.749 | 0.624 | 0.742 | – | 0.535 | 0.98 | 1.07 | 1.01 | 0.351 | 0.206 | 1.09 | 1.07 | 1.13 | 0.406 | 0.162
6 | BEN | 0.411 | 0.503 | 0.3 | – | 0.383 | 0.563 | 0.771 | 0.617 | 0.742 | 0.677 | 0.927 | 1.01 | 0.851 | 0.431 | 0.201 | 0.906 | 0.892 | 0.7 | 0.357 | 0.247
7 | NCI-H2347 | 0.454 | 0.284 | 0.362 | – | 0.389 | 0.645 | 0.736 | 0.792 | 0.747 | 0.669 | – | 1 | 0.665 | 1.08 | 0.758 | 0.943 | 1.05 | 0.957 | 0.667 | 0.774
8 | NCI-H650 | 0.774 | 0.919 | 0.877 | 0.66 | 0.669 | 1.01 | 0.801 | 0.922 | – | 0.905 | 0.875 | 1.25 | 0.826 | 0.582 | 0.355 | 0.89 | 1.17 | 0.638 | 0.34 | 0.23
